The numbers were not newly measured in patent US20050053970A1, “Methods and compositions for identifying peptide aptamers capable of altering a cell phenotype” (priority 2001, published 2005), which cites them from elsewhere.

The target of series [1] is T1, mutant human growth hormone (Thr175 Gly-hGH) and extracellular domain of the hGH receptor (Trp104 Gly-hGHbp) (Homo sapiens, UniProt P01241+P10912, T201G/W122G).
T1 construct: the extracellular domain of the hGH receptor (Trp104 Gly-hGHbp)
Particulars: Thr175 Gly-hGH with Trp104 Gly-hGHbp.

Series [2] has as its system mammals. Particulars: in vivo.
Series [3] has as its target α/δ and α/γ sites in T. californica electric organ (Tetronarce californica, UniProt P02710+P02714+P02718).

Turning to `Clc1cnc(C(Cl)(Cl)Cl)[nH]1` [5-chloro-2-trichloromethylimidazole], the “increase of the affinity of the mutant hormone for its receptor” value in series [1] is listed as “more than 1000 fold”.

For the molecule ECCNPACGRHYSC-NH2 [α-conotoxin GI], the effect in mammals result in series [2] is given as “lethal to mammals at low concentrations”. The “discrimination between the α/δ and α/γ sites” value in series [3] is listed as “finds the α/δ site preferable to the α/γ site”.

In the case of ICCNPACGPLYSC-NH2 [α-conotoxin SI], the effect in mammals entry in series [2] is reported as “essentially no effect”. In series [3], the “activity in T. californica” value was “active”; the “discrimination between the α/δ and α/γ sites” value is given as “does not distinguish”.
